From article PMC8213385, “Development of a Fluorescent Assay to Search New Drugs Using Stable tdTomato-Leishmania, and the Selection of Galangin as a Candidate With Anti-Leishmanial Activity” (Frontiers in Cellular and Infection Microbiology, 2021)

Legend:
[1] = test system: Raw 264.7 macrophages infected with L. amaz/tc3; experiment: Cytokine production (IL-12p70, IL-10) by macrophages, ELISA of culture supernatant; format: cell-based; details: 20 µM, 48 h
Method: Then, the culture supernatant was recovered and maintained at -80°C until use. The culture supernatant concentrations of IL-12p70 and IL-10 (BD Biosciences, San Diego, USA) were determined by ELISA following the specifications of the supplier. Each condition was performed in quadruplicate.

[2] = test system: promastigotes of L. (L.) donovani; set-up: method as in Kaur et al., 2010; details: GAL isolated from Alpinia galanga rhizomes ref Kaur et al., 2010; read-out: IC50 against promastigotes of L. (L.) donovani; cited from earlier work
[3] = test system: promastigotes of L. amaz/tc3; experiment: Fluorescence assay against promastigotes of L. amaz/tc3 (tdTomato); format: cell-based, Leishmania (Leishmania) amazonensis; details: Leishmania, 48 h, read-out: IC50 against promastigotes of L. amaz/tc3
Method: Then, we evaluated the efficacy of MI, a reference drug for leishmaniasis by the fluorescence method (L. amaz/tc3) and by the conventional method based in counting the parasite at the optic microscope (L. amaz/wt). Mid-log promastigotes of L. amaz/tc3 and L. amaz/wt were harvest and seeded (1 x 10^6/0.1 ml) with different concentrations of MI (40 to 0.6 µg/ml) in a 96-well plate at 23°C. Promastigotes cultured only in medium were the controls. Parasite viability was determined by measuring the fluorescence of L. amaz/tc3 in a plate reader (Tecan, Männedorf, Switzerland) and by counting the mobile promastigotes in a Neubauer chamber at the optic microscope (40x) (Leitz Wetzlar, Germany) at 48 h of incubation with MI. Viability was calculated with the formula: ViabilityL.amaz/tc3 =FLt/FLc×100 where, FLt is the fluorescence of treated culture, and FLc is the fluorescence of control; ViabilityL.amaz/wt=NPt/NPc×100 where, NPt is the number of promastigotes in the treated culture, and NPc is the number of promastigotes in control culture. Then, the 50% inhibitory concentration (IC50) of MI was estimated.
After fluorescence assay validation as it is described above, the method was used to evaluate in vitro the flavonoids anti-leishmanial activity. Mid-log promastigotes of L. amaz/tc3 were harvest and seeded with different concentrations of GAL (1,200 to 18.75 µM), MO, FI and RU (40 to 1.25 µM), and EGCG (300 to 18.75 µM). Positive control were promastigotes treated with PE (4 to 0.25 µM), the negative control were promastigotes cultured with medium only, and the blank was the culture medium. The parasites were incubated at 23°C for 48 h. The anti-leishmanial activity was determined by measuring the parasite fluorescence in a plate reader (Tecan, Männedorf, Switzerland). The viability was estimated as was described above for MI (fluorescent assay). The IC50 was calculated for each compound.

[4] = test system: intracellular amastigotes of L. (L.) amazonensis; experiment: Microscopic assay, counting intracellular amastigotes in Raw 264.7 macrophages at the optic microscope; format: cell-based, Leishmania (Leishmania) amazonensis
Method: (§1) Furthermore, the efficacy of MI was also determined against intracellular amastigotes of L. amaz/tc3 and L. amaz/wt. Raw 264.7 macrophages were plated in 96-well black plate (5 x 10^4 cells/well) and in eight well Lab-Tek tissue culture slides (6.6 x 10^4 cells/ml) (Nunc, USA). The cells were infected with promastigotes in stationary phase of L. amaz/tc3 and L. amaz/wt (1:20 ratio) at 33°C, 5% CO2. After incubation, the infected macrophages were washed to remove non-internalized parasites with PBS plus P-S. New RPMI-1640 medium with different concentrations of MI (20 to 0.62 µg/ml) was added to each well and incubated at 33°C, 5% CO2 during 48 h. The anti-leishmanial activity of MI was determined by measuring the fluorescence of intracellular amastigotes of L. amaz/tc3 in a plate reader (Tecan, Männedorf, Switzerland). The viability was calculated as mentioned above, and the IC50 was also estimated. Simultaneously, the leishmanicidal activity of MI against L. amaz/wt was determined by the microscopy test. In this case, the infected macrophages were stained with Diff Quik (Biopur S.R.L., Rosario, Argentina) and the number of intracellular amastigotes was determined in 200-500 macrophages in treated and control cultures per slide under the immersion lens microscope (100x) (Leitz Wetzlar, Germany). The infection index (II) and the % infectivity (I) were calculated by the following formulas: II = IM × A, where IM= infected macrophages (%), A= number of amastigotes per infected macrophages; and I(%)=IIT/IIc×100, where IIT= infection index in treated cultures, IIC= infection index in control cultures ([Ayres et al., 2008]). The IC50 of MI was calculated.
Then, to estimate the IC50 values of GAL, FI and MO; and to confirm the IC50 of RU, the activity was evaluated quantifying the intracellular amastigotes at the optic microscope. We followed the same methodology described for MI (microscopic assay) in “In Vitro, Fluorescent Assay Validation” section and the range of concentrations were for GAL (30 to 7.5 µM), FI (60 to 15 µM), RU and MO (200 to 50 µM), EGCG (142 a 17.7 µM).

[5] = test system: intracellular amastigotes of L. amaz/tc3; experiment: Fluorescence assay in the macrophage-amastigote model (Raw 264.7 infected with L. amaz/tc3); format: cell-based, Leishmania (Leishmania) amazonensis
Method: as §1
The flavonoids anti-leishmanial activity was also evaluated against intracellular amastigotes. Macrophages (Raw 264.7) were plated in 96-well black plate (5 x 10^4 cell/well) and infected with promastigotes in stationary phase of L. amaz/tc3 (1:20 ratio) at 33°C, 5% CO2. After incubation, the infected macrophages were washed to remove non-internalized parasites with PBS plus P-S. New RPMI-1640 medium with different concentrations of GAL (30 to 3.75 µM), MO (300 to 37.5 µM), FI (65 to 8.12 µM), RU (300 to 37.5 µM) and EGCG (30 to 7.5 µM) was added to each well and incubated at 33°C, 5% CO2 for 48 h. Infected cells treated with Ma (136.6 to 34.1 µM) were the positive controls, and cells incubated only with RPMI-1640 were the negative control. The infected macrophages were incubated during 48 h at 33°C, 5% CO2. After treatment, the fluorescence of intracellular amastigotes of L. amaz/tc3 was measured in a plate reader (Tecan, Männedorf, Switzerland). The viability was determined as was described for MI (fluorescent assay). The selectivity index (SI) (CC50 for macrophages/IC50 for Leishmania) was calculated.

O=c1c(O)c(-c2ccccc2)oc2cc(O)cc(O)c12 [GAL, Galangin]
IL-10 concentration in culture supernatant ([1]; between treated groups): did not show significant differences | IL-12 p70 in culture supernatant, mean (range) ([1]; infected macrophages, infected non-stimulated controls 72.11 pg/ml, p < 0.01): 232.2 pg/mL | IC50 [2]: 100 µM | IC50 [3]: 53.1 µM | SI (Selectivity index) ([4]; CC50 for macrophages/IC50 for Leishmania (intracellular amastigotes; Ma from fluorescence IC50)): 1.1 | IC50 ([4]; Leishmania amazonensis, RAW264.7, Raw 264.7 macrophages, 48 h, optic microscope, read-out: Microscopic IC50 μM (SE), intracellular amastigotes): 20.6 µM | Fluorescence Inhibition (%) of amastigotes ([5]; 15 µM, 48 h): 29% | inhibition at 15 µM ([5]; Leishmania, RAW264.7, 48 h, read-out: Fluorescence Inhibition (%) of amastigotes, 15 µM, 48 h): 29 to 31%
